Test results reported in paper PMC7072973, “Differential Signaling Profiles of MC4R Mutations with Three Different Ligands” (International Journal of Molecular Sciences, 2020).
Entries after “also recorded” stand apart in the source; their conditions may differ. Read-outs that look alike come from different tables or passages of the source.

What was measured:
MC4R V103I [1] = molecular target: T1, MC4R V103I (Homo sapiens, UniProt P32245, V103I)
Target sequence in this assay (P32245 whole entry V103I): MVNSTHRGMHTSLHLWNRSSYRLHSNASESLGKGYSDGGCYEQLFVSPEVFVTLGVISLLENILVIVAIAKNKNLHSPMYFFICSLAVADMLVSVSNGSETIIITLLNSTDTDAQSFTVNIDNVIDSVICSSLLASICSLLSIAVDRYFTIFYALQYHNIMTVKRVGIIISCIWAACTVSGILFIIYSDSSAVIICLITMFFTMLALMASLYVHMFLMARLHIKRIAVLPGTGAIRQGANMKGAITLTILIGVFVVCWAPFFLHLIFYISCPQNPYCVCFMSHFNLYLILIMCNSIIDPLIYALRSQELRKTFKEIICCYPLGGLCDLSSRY
Procedure: (§5) GS and Gi coupling to the MC4R were determined using the AlphaScreen™ assay (Perkin Elmer Life Science, Boston, MA, USA) performed according to the manufacturer’s protocol and described elsewhere [68]. […] Determination of Gi coupling was investigated by pretreatment with 50 µg/mL PTX 18 h before stimulation. All stimulations were performed at 37 °C and 5% CO2. Incubation was stopped by removing the compounds and lysing the cells in lysis buffer containing IBMX for 1.5–2 h at 4 °C on a shaking platform.
The determination of cAMP using the AlphaScreen™ assay is a competitive immune assay based on antibody-coupled acceptor beads that bind cAMP and streptavidin-coupled donor beads that bind to a biotinylated cAMP probe. Excitement of the donor bead leads to the conversion of ambient oxygen to a singlet state. In close proximity of donor and acceptor beads through binding the biotinylated probe, the acceptor reacts with the singlet molecule and emits light. Absolute amounts of cAMP are determined by the simultaneous measurement of a cAMP standard. The plate reader (Mithras 940 LB)) was used for the read out, at 565 nm.
Concentration–response curves of each experiment were analyzed by fitting a non-linear regression model for sigmoidal response in Graph Pad Prism 6 (GraphPad Software Inc., La Jolla, CA, USA) to determine potency (EC50 values). For mutations that had EC50 values outside of concentration tested, it was set to the appropriate highest concentration tested. Signaling bias analysis was performed as described by Kenakin (2017) [69] using the formula (4) Δlog(Emax/EC50) = log(Emaxtest/EC50 test)−log(Emaxref/EC50 ref) with test referring to the tested receptor mutation and ref being reference (MC4R WT). Emax is the maximal response (efficiency) of the mutation, which was determined from the concentration–response curves. Where no Emax could be determined from incomplete curves (e.g., in case of AgRP co-stimulation), the response of the maximal concentration was substituted as has been described by Winpenny et al. (2016) [70].

MC4R WT [2] = molecular target: T2, MC4R WT (Homo sapiens, UniProt P32245); details: HEK293, NFAT-luc, 6 h, mean ± SEM, 3 to 7 experiments in triplicates
Target sequence in this assay (P32245 whole entry): as the sequence (P32245 whole entry V103I) above, with I103V counted along it
Procedure: (§6) Activation of PLC, RhoA and ERK1/2 phosphorylation was determined using luciferase-based reporter gene assays that utilize responsive elements in the promotor region of the gene encoding a firefly luciferase. For PLC activation, the NFAT responsive element (NFAT-luc, pGL4.33) was co-transfected with the receptor mutations. Similarly, co-transfections with SRF responsive element (SRF-luc, pGL4.33, Promega, Mannheim, Germany) for RhoA activation and Serum response element (SRE-luc, pGL3.4, Promega, Mannheim, Germany) for ERK1/2 phosphorylation were performed. […]
(§7) Measurement of luciferase activity provided information about the activation of the respective second messenger by transferring 10 µL lysate into a white opaque 96-well plate. Injection of 40 µL firefly luciferase substrate (Promega, Mannheim, Germany) and measurement of luminescence was performed with a plate reader (Mithras LB 940).
(§8) Concentration–response curves of each experiment were analyzed by fitting a non-linear regression model for sigmoidal response in Graph Pad Prism 6 (GraphPad Software Inc., La Jolla, CA, USA) to determine potency (EC50 values). […] Emax is the maximal response (efficiency) of the mutation, which was determined from the concentration–response curves. […]

MC4R V103I [3] = molecular target: T1, MC4R V103I; remark: listed apart in the source
Target sequence in this assay (P32245 whole entry V103I): as the sequence (P32245 whole entry V103I) above
Procedure: (§9) Therefore, in addition to cAMP measurements to assess GS activation in the absence and presence of 100 nM AgRP, we measured Gi/o activation via determination of second messenger (cAMP) modulation by adenylyl cyclase (AC) in the absence or presence of pertussis toxin (PTX) pretreatment. In the presence of PTX, which locks the Gαi/o subunit in its GDP-bound inactivated state, the G protein is no longer able to inhibit the AC to form cAMP [48]. Although this is an indirect way of measuring the contributions from Gi/o signaling to the total amount of intracellular cAMP, we will refer to these measurements as Gi/o coupling in order to simplify the results part.
(§10) GS and Gi coupling to the MC4R were determined using the AlphaScreen™ assay (Perkin Elmer Life Science, Boston, MA, USA) performed according to the manufacturer’s protocol and described elsewhere [68]. […] Determination of Gi coupling was investigated by pretreatment with 50 µg/mL PTX 18 h before stimulation. […]
(§11) The determination of cAMP using the AlphaScreen™ assay is a competitive immune assay based on antibody-coupled acceptor beads that bind cAMP and streptavidin-coupled donor beads that bind to a biotinylated cAMP probe. […] Absolute amounts of cAMP are determined by the simultaneous measurement of a cAMP standard. The plate reader (Mithras 940 LB)) was used for the read out, at 565 nm. […]

MC4R H158R [4] = molecular target: T3, MC4R H158R (Homo sapiens, UniProt P32245, H158R)
Target sequence in this assay (P32245 whole entry H158R): as the sequence (P32245 whole entry V103I) above, with I103V, H158R counted along it
Procedure: as §6, §7, §8

MC4R H158R [5] = molecular target: T3, MC4R H158R; remark: listed apart in the source
Target sequence in this assay (P32245 whole entry H158R): as the sequence (P32245 whole entry V103I) above, with I103V, H158R counted along it
Procedure: as §6, §7, §8

MC4R WT [6] = molecular target: T2, MC4R WT; details: HEK293, SRF-luc, 6 h, mean ± SEM, 3 to 7 experiments in triplicates
Target sequence in this assay (P32245 whole entry): as the sequence (P32245 whole entry V103I) above, with I103V counted along it
Procedure: as §6, §7, §8

MC4R V103I [7] = molecular target: T1, MC4R V103I; remark: listed apart in the source
Target sequence in this assay (P32245 whole entry V103I): as the sequence (P32245 whole entry V103I) above
Procedure: as §6, §7, §8

MC4R H158R [8] = molecular target: T3, MC4R H158R; remark: listed apart in the source
Target sequence in this assay (P32245 whole entry H158R): as the sequence (P32245 whole entry V103I) above, with I103V, H158R counted along it
Procedure: as §9, §10, §11

MC4R H158R [9] = molecular target: T3, MC4R H158R; remark: listed apart in the source
Target sequence in this assay (P32245 whole entry H158R): as the sequence (P32245 whole entry V103I) above, with I103V, H158R counted along it
Procedure: as §6, §7, §8

MC4R V103I [10] = molecular target: T1, MC4R V103I; remark: listed apart in the source
Target sequence in this assay (P32245 whole entry V103I): as the sequence (P32245 whole entry V103I) above
Procedure: as §6, §7, §8

MC4R WT [11] = molecular target: T2, MC4R WT; details: HEK293, PTX-sensitive cAMP, mean ± SEM, 3 to 7 experiments in triplicates
Target sequence in this assay (P32245 whole entry): as the sequence (P32245 whole entry V103I) above, with I103V counted along it
Procedure: as §9, §10, §11

MC4R WT [12] = molecular target: T2, MC4R WT; details: HEK293, SRE-luc, 6 h, mean ± SEM, 3 to 7 experiments in triplicates
Target sequence in this assay (P32245 whole entry): as the sequence (P32245 whole entry V103I) above, with I103V counted along it
Procedure: as §6, §7, §8

MC4R H158R [13] = molecular target: T3, MC4R H158R; remark: listed apart in the source
Target sequence in this assay (P32245 whole entry H158R): as the sequence (P32245 whole entry V103I) above, with I103V, H158R counted along it
Procedure: as §5
(§12) The determination of cAMP using the AlphaScreen™ assay is a competitive immune assay based on antibody-coupled acceptor beads that bind cAMP and streptavidin-coupled donor beads that bind to a biotinylated cAMP probe. Excitement of the donor bead leads to the conversion of ambient oxygen to a singlet state. […] Absolute amounts of cAMP are determined by the simultaneous measurement of a cAMP standard. The plate reader (Mithras 940 LB)) was used for the read out, at 565 nm.
as §8

MC4R WT [14] = molecular target: T2, MC4R WT; assay: β-arrestin2 recruitment (NanoBRET), MC4R WT; assay type: cell-based; design: expressed in transfected cells; host or cells: HEK293; details: HEK293, β-arrestin2, 5 min, mean ± SEM, 3 to 7 experiments in triplicates
Procedure: (§1) A total of 16–20 h after transfection in 6-well plates, cells were detached, and cell number was adjusted to 2.2 × 10^5 cells/mL in Opti-MEM without phenol red supplemented with 4% FBS. Cells were divided into two pools, adding either the acceptor NanoBRET™ Ligand 618 (1 µL/mL cells of 0.1 mM solution) or the same amount of DMSO as background control. After reseeding 90 µL cell suspension/well into a white 96-well plates, incubation was continued for 4–6 h.
(§2) For measurements, 25 µL of NanoBRET™ substrate was injected using a plate reader (Mithras LB 940). Donor and acceptor emission were measured at 460 nm and 610 nm, respectively, and the BRET ratio was calculated by dividing acceptor emission by donor emission:(1) BRET ratio =emissionacceptor/emissiondonor
(§3) The ratio was corrected for background bleed through by subtracting of the background ratio (no acceptor DMSO control) and conversion to milliBRET units (mBU):(2) corrected BRET ratio [mBU]=(BRET ratiosample−BRET rationo acceptor control)×1000
(§4) To calculate the difference between stimulated and basal interaction, the NET BRET was acquired using the formula:(3) NET BRET = corrected BRET ratiostim− corrected BRET ratiobasal
Target sequence in this assay (P32245 whole entry): as the sequence (P32245 whole entry V103I) above, with I103V counted along it
Target sequence in this assay (P29067 whole entry partner): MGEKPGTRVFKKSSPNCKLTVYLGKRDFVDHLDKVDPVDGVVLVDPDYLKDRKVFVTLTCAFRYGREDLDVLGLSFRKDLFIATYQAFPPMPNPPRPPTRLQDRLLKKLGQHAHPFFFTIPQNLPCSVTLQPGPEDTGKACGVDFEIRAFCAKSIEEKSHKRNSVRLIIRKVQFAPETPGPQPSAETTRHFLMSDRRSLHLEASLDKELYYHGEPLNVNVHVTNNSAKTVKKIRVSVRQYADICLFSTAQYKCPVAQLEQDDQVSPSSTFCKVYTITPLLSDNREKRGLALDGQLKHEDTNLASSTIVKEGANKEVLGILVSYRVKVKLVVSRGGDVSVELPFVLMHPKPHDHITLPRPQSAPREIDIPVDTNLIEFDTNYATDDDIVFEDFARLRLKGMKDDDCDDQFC

MC4R V103I [15] = molecular target: T1, MC4R V103I; remark: listed apart in the source
Target sequence in this assay (P32245 whole entry V103I): as the sequence (P32245 whole entry V103I) above
Procedure: as §6, §7, §8

MC4R H158R [16] = molecular target: T3, MC4R H158R; assay type: cell-based; design: expressed in transfected cells; host or cells: HEK293
Procedure: as §1, §2, §3, §4
Target sequence in this assay (P32245 whole entry H158R): as the sequence (P32245 whole entry V103I) above, with I103V, H158R counted along it
Target sequence in this assay (P29067 whole entry partner): as the sequence (P29067 whole entry partner) above

MC4R V103I [17] = molecular target: T1, MC4R V103I; assay type: cell-based; design: expressed in transfected cells; host or cells: HEK293; details: HEK293, β-arrestin2, 5 min, mean ± SEM, 3 to 7 experiments in triplicates
Procedure: as §1, §2, §3, §4
Target sequence in this assay (P32245 whole entry V103I): as the sequence (P32245 whole entry V103I) above
Target sequence in this assay (P29067 whole entry partner): as the sequence (P29067 whole entry partner) above

MC4R WT [18] = assay: GS signaling (cAMP) with AgRP co-stimulation, MC4R WT; assay type: cell-based, human
Procedure: (§13) Therefore, in addition to cAMP measurements to assess GS activation in the absence and presence of 100 nM AgRP, we measured Gi/o activation via determination of second messenger (cAMP) modulation by adenylyl cyclase (AC) in the absence or presence of pertussis toxin (PTX) pretreatment.
as §5, §12

MC4R WT [19] = molecular target: T2, MC4R WT; details: HEK293, cAMP, 40 min, IBMX, mean ± SEM, 3 to 7 experiments in triplicates
Target sequence in this assay (P32245 whole entry): as the sequence (P32245 whole entry V103I) above, with I103V counted along it
Procedure: as §5, §12, §8

[20] = test system: all tested MC4R mutations; assay: GS signaling (cAMP) with AgRP, all tested MC4R mutations; details: all tested MC4R mutations and ligands; Figure S1
Procedure: as §13, §5, §12

MC4R H158R [21] = details: 100 nM AgRP
MC4R V103I [22] = details: agonist α-MSH, 100 nM AgRP
MC4R V103I [23] = details: synthetic agonist MTII; cited from earlier work
MC4R = details: cited from earlier work
Text: The MC4R signals mainly via activation of the stimulating G protein GS, which leads to an increase in intracellular cyclic adenosine-monophosphate (cAMP). In recent years, more and more studies provided evidence that the MC4R is able to couple to a variety of signaling pathways, such as extracellular regulated kinase (ERK) activation, and to other G proteins, such as Gi/o, Gq/11 and G12/13 [10, 11, 12, 13]. These pathways might also be involved in the anorexigenic effect of the activated MC4R [14].

[24] = HEK293, cAMP, 40 min, IBMX, mean ± SEM, 3 to 7 experiments in triplicates
[25] = HEK293, PTX-sensitive cAMP, mean ± SEM, 3 to 7 experiments in triplicates
[26] = HEK293, NFAT-luc, 6 h, mean ± SEM, 3 to 7 experiments in triplicates
[27] = HEK293, SRF-luc, 6 h, mean ± SEM, 3 to 7 experiments in triplicates
[28] = HEK293, SRE-luc, 6 h, mean ± SEM, 3 to 7 experiments in triplicates

Molecule: CSCC[C@H](NC(=O)[C@H](CCCNC(=N)N)NC(=O)[C@H](Cc1ccc(O)cc1)NC(=O)[C@@H]1CCCN1C(=O)CNC(=O)[C@H](CCC(=O)O)NC(=O)[C@H](CC(=O)O)NC(=O)[C@H](CCCCN)NC(=O)[C@H](CCCCN)NC(=O)[C@H](CCC(=O)O)NC(=O)[C@H](C)N)C(=O)N[C@@H](CCC(=O)O)C(=O)N[C@@H](Cc1c[nH]cn1)C(=O)N[C@@H](Cc1ccccc1)C(=O)N[C@@H](CCCNC(=N)N)C(=O)N[C@@H](Cc1c[nH]c2ccccc12)C(=O)NCC(=O)N[C@@H](CO)C(=O)N1CCC[C@H]1C(=O)N1CCC[C@H]1C(=O)N[C@@H](CCCCN)C(=O)N[C@@H](CC(=O)O)C(=O)O [β-MSH, β-melanocyte stimulating hormone]
- GS signaling compared to WT (MC4R V103I [1]): reduced (though not significantly); also recorded: tendency towards low GS signaling
- Emax (MC4R V103I [1]; [24]): 8.69 fold over WT basal
- Emax (MC4R WT [2]): 6.58 fold over WT basal
- Gi/o coupling compared to WT (MC4R V103I [3]): strong positive bias towards Gi/o coupling
- Emax (MC4R V103I [3]; [25]): 16.65 fold over WT basal
- Gq/11 (PLC) activation compared to WT (MC4R H158R [4]): increased GS and Gq/11 signaling
- Emax (MC4R H158R [4]; [26]): 10.40 fold over WT basal
- G12/13 (RhoA) activation compared to WT (MC4R H158R [5]): WT-like activity in G12/13 and β-arrestin2 recruitment
- Emax (MC4R H158R [5]; [27]): 2.18 fold over WT basal
- Emax (MC4R WT [6]): 2.40 fold over WT basal
- ERK phosphorylation compared to WT (MC4R V103I [7]): tendency towards an ERK signaling bias, which was not significant
- Emax (MC4R V103I [7]; [28]): 5.14 fold over WT basal
- Gi/o coupling compared to WT (MC4R H158R [8]): strong bias towards Gi/o signaling
- Emax (MC4R H158R [8]; [25]): 38.55 fold over WT basal
- ERK phosphorylation compared to WT (MC4R H158R [9]): augmented ERK phosphorylation
- Emax (MC4R H158R [9]; [28]): 5.55 fold over WT basal
- G12/13 (RhoA) activation compared to WT (MC4R V103I [10]): strong positive bias towards Gi/o coupling, RhoA activation via G12/13
- Emax (MC4R V103I [10]; [27]): 2.29 fold over WT basal
- Emax (MC4R WT [11]): 26.86 fold over WT basal
- Emax (MC4R WT [12]): 4.94 fold over WT basal
- GS signaling compared to WT (MC4R H158R [13]): increased GS and Gq/11 signaling
- Emax (MC4R H158R [13]; [24]): 14.85 fold over WT basal
- Emax (MC4R WT [14]): 1.93 fold over WT basal
- Gq/11 (PLC) activation compared to WT (MC4R V103I [15]): increased Gq/11 coupling
- Emax (MC4R V103I [15]; [26]): 14.65 fold over WT basal
- β-arrestin2 recruitment compared to WT (MC4R H158R [16]): WT-like activity in G12/13 and β-arrestin2 recruitment
- Emax (MC4R V103I [17]): 1.35 fold over WT basal
- GS signaling in the presence of 100 nM AgRP (MC4R WT [18]): not as strongly affected compared to the one of α-MSH
- Emax (MC4R WT [19]): 10.05 fold over WT basal

Molecule: Agouti-related peptide (SSRRCVRLHESCLGQQVPCCDPCATCYCRFFNAFCYCRKLGTAMNPCSRT; UniProt O00253 83-132, looked up) [AgRP, purchased from Phoenix Pharmaceuticals]
- effect of AgRP on GS signaling [20]: decreased GS signaling for all tested MC4R mutations and ligands
- antagonistic effect of AgRP (MC4R H158R [21]; agonist α-MSH): loss-of-antagonist effect
- antagonistic effect of AgRP (MC4R H158R [21]; agonist β-MSH): loses its antagonistic effect for this mutation
- antagonistic effect of AgRP (MC4R V103I [22]): tendency towards a reduced antagonist effect of AgRP, which was, however, not significant; also recorded: tendency towards a decreased antagonistic effect
- AgRP antagonistic potency (MC4R V103I [23]): modestly reduced AgRP antagonistic potency
- mode of action at MC4R (MC4R; ref 15, 17): inverse agonist
- mode of action at MC4R (MC4R; ref 15, 18): competitive antagonist
